Data on six molecules can be found in patent publication US7576054B2, “Compositions and methods for treating bacteria” (Biosynexus Incorporated, priority 2005, dated 2009).

Assay [1] deals with S. aureus. Put plainly: Superficial skin abrasion / superficial wound skin infection model. It counts as in vivo. The conditions noted are these: for synergy with nisin in the skin infection model: used in combination with nisin; for synergy with mupirocin in the skin infection model: used in combination with mupirocin. The method, then: Mice provided a superficial skin abrasion and inoculated with S. aureus as described in Example 2 were treated with a composition comprising a combination of 6% nisin and 0.1% gentamicin.
In order to determine if nisin could function in a synergistic way with other antimicrobials to treat (e.g., kill and/or inhibit growth of) bacteria in a superficial wound model (See Example 2), nisin was used in combination with either neomycin or gallidermin and tested.
In order to determine if nisin or gallidermin could function in a synergistic way with other antimicrobials to treat (e.g., kill and/or inhibit growth of) bacteria in a superficial wound model (See Example 2), nisin or gallidermin were used in combination with either gentamicin and mupirocin, respectively, and tested. Nisin did synergize with gentamicin and gallidermin did synergize with mupirocin to reduce bacterial counts in the skin infection model.
In order to determine if mupirocin could function in a synergistic way with bacitracin to treat (e.g., kill and/or inhibit growth of) bacteria in a superficial wound model (See Example 2), mupirocin was used in combination with bacitracin and tested for the ability to treat bacteria.

For assay [2], the system named is S. aureus. Nature of the assay: In vitro MIC of nisin alone or in combination (log reduction of viable S. aureus). The class given is cell-based. Conditions: FIG. 11. The method, then:
In order to determine if nisin could function in a synergistic way with other antimicrobials to treat (e.g., kill and/or inhibit growth of) bacteria in vitro, the minimum inhibitory concentration (MIC) of nisin alone or nisin in combination with either mupirocin, neomycin or gentamicin were tested. The MIC was determined by calculating the log reduction of viable S. aureus following incubation with the amounts of nisin and other antimicrobials as indicated in FIG. 11.

Assay [3] has as its system S. aureus. Nature of the assay: Suture skin infection (deep tissue infection) mouse model. It counts as in vivo. Conditions: deep cut in mouse, S. aureus introduced into the incision; FIG. 13. The protocol: It was determined whether nisin and mupirocin, either alone or in combination with each other, would be able to treat S. aureus in a deep tissue infection model. A suture skin infection model was generated in which a deep cut (e.g., one needing sutures to close) was made in a mouse and S. aureus introduced into the incision. […] Thus, a combination of nisin and mupirocin can be used to treat a deep tissue infection as well as a […] infection.

In assay [4] the test system is S. aureus strain resistant to mupirocin. Nature of the assay: Mupirocin-resistant S. aureus infection in abraded mouse skin. The conditions noted are these: FIG. 3. The class given is in vivo. The protocol: (§1) Mouse Skin Infection Model: An overnight culture of S. aureus grown in tryptic soy broth (SA8; range from 1 to 6×10^9 CFUs/mL) was centrifuged at 4000×g for 10 minutes and resuspended in an equal volume of phosphate buffered saline (PBS). The bacteria were diluted to a percent transmittance of 40 (Spectronic 20D+) and diluted a subsequent 1:1000 in PBS for a final bacteria concentration of about 3×10^5. SKH1 (hrhr) hairless mice (Charles River) were sedated with 0.2 mL of ketamine (80 mg/kg) and xylazine (32 mg/kg) delivered intraperitoneally. The upper back of the mice were scrubbed with a 70% alcohol wipe and allowed to dry. Fine abrasions were made on the backs' of the mice between the shoulders using 150 grit sandpaper. Bacteria were swabbed over the abraded area with a sterile, cotton-tipped applicator until the area was saturated with the solution.
Topical Ointment: 74 g of PEG 400 and 24 g of PEG 3350 were added to a 250 mL glass beaker and heated until all of the PEG 3350 was melted. […]
Treatment of Infected Skin with Topical Ointment: Treatments aimed to eradicate S. aureus skin infections in the mouse model were started on the morning after infection (Day 1). […] After mixing by vortex, 50 μL of each sample was streaked onto blood agar plates, incubated at 37° C. overnight, and the colonies were counted and compared to untreated controls. […]

Assay [5] deals with Staphylococcus aureus ATCC #6538. Put plainly: Inoculated partial thickness wounds in pig. It counts as in vivo. Conditions: treated twice per day, mean ± SD. The protocol:
Experimental animals. A young female specific pathogen free (SPF: Looper Farms, North Carolina) pig weighing 25-30 kg was kept in house for two weeks prior to initiating the experiment. The animal was fed a basal diet ad libitum and housed individually in animal facilities (meeting American Association for Accreditation of Laboratory Animal) with controlled temperature (19-21° C.) and lights (12 h/12 h LD). The experimental animal protocols used for this study followed the federal guidelines for the care and use of laboratory animals (U.S. Department of Health and Human Services, U.S. Department of Agriculture). Animals were monitored daily for any observable signs of pain or discomfort. […] A small amount of the inoculum suspension was plated onto culture media to quantitate the exact concentration of viable organisms prior to the experiment. […] At each sampling time, sites were cultured quantitatively. […] Serial dilutions were made and scrub solutions were quantitated using the Spiral Plater System that deposits a small defined amount (50 μl) of suspension over the surface of a rotating agar plate. […]

For assay [6], the system named is P. aeruginosa. Nature of the assay: P. aeruginosa infection in abraded mouse skin. It counts as in vivo. The conditions noted are these: FIG. 4.
In assay [7] the test system is S. aureus. Put plainly: Mouse skin infection model: S. aureus infection in abraded mouse skin. It counts as in vivo. Conditions: for efficacy compared with independent administration of nisin: PEG ointment or G&W petrolatum base bacitracin formulation, FIG. 2; for additive or synergistic effect when combined with nisin: skin infection, combined with nisin (See Example 1). The protocol: as §1
Topical Ointment: 74 g of PEG 400 and 24 g of PEG 3350 were added to a 250 mL glass beaker and heated until all of the PEG 3350 was melted. The solution was stirred well and allowed to cool to room temperature, which results in a smooth, opaque ointment. Powdered nisin and bacitracin were added to the ointment on a w/w basis and stirred until homogenously mixed. For formulations containing mupirocin, 1 g of Bactroban Ointment was weighed into a container and powdered nisin added to 2% or 6% (w/w) and mixed well. Lysostaphin was first dissolve to a concentration of about 150 mg/mL in DI water before mixing into the ointment to give a final concentration of 2% (w/w).
Treatment of Infected Skin with Topical Ointment: Treatments aimed to eradicate S. aureus skin infections in the mouse model were started on the morning after infection (Day 1). About 0.1 g of the topical ointments containing nisin (0, 2, or 6% w/w), mupirocin (0 or 2%), bacitracin (0 or 500U), and lysostaphin (0 or 2% w/w) were swabbed over the infected area 3 times a day on Days 1 and 2 using a sterile, polyester-tipped applicator. The mice were sacrificed by CO2 asphyxiation on the morning of Day 3 and a 0.5-cm^2 patch of skin around the infected area was excise. The skin sample was dissected and placed into a test tube containing 1 mL of 5 mg/mL proteinase K, 20 mg/mL esterase, and 20 mg/mL activated charcoal in PBS to neutralize the activity of the antibacterial agents. Bacteria were dislodged from the skin sample by sonication: 2 minute treatments per sample with alternating 5 seconds at 3 W and 5 seconds at 0 W in a Virsonic 600 with microtip (VirTis). After mixing by vortex, 50 μL of each sample was streaked onto blood agar plates, incubated at 37° C. overnight, and the colonies were counted and compared to untreated controls.
For the following data, except where noted in FIG. 2, all antibiotic formulations were in a common polyethylene glycol (PEG) ointment (PEG 400 plus PEG 3350).

For assay [8], the system named is P. aeruginosa. Conditions: previously shown; cited from earlier work.

Entries after “also recorded” stand apart in the source; their conditions may differ. Bridge positions count the residues as written; N and C are the ends. Square brackets hold non-standard residues; d marks the D form. Peptide text beside a SMILES is read from it. * marks the point of attachment. Ileψ(thiazoline)Cys = CC[C@H](C)[C@H](N)C1=N[C@H](C(=O)*)CS1; dOrn = NCCC[C@@H](N)C(=O)O

In the case of gentamicin, the “synergy with nisin in the skin infection model” value (“synergy with nisin” below) with S. aureus [1] is listed as “did synergize”. For the same molecule, the “ability to synergize in vitro with nisin” value with S. aureus [2] was “none of the antimicrobials tested (i.e., mupirocin, neomycin, and gentamicin) displayed the ability to synergize in vitro with nisin”.

Take `C/C(=C\C(=O)OCCCCCCCCC(=O)O)C[C@@H]1OC[C@H](C[C@@H]2O[C@H]2[C@@H](C)[C@H](C)O)[C@@H](O)[C@H]1O` [Mupirocin, mupirocin]: the “efficacy in treating S. aureus in suture infection model” value in the assay on S. aureus [3] is listed as “very little efficacy”. For the same molecule, the “activity against mupirocin-resistant S. aureus strain” value in assay [4] is “minimal activity”. In addition, the “Av. Count (S. aureus recovered from wounds)” value in assay [5] (Day 7 post treatment) is listed as 1.63 ± 1.42 Log cfu/ml; in assay [5] (two days after initial treatment) it was 4.96 ± 0.8 Log CFU/ml. For the same molecule, the “ability to synergize in vitro with nisin” value in the assay on S. aureus [2] is “none of the antimicrobials tested (i.e., mupirocin, neomycin, and gentamicin) displayed the ability to synergize in vitro with nisin”. In addition, the “additional activity added to the nisin formulation” value in the assay with P. aeruginosa [6] is on record as “does not add any additional activity”. Moreover, in the assay on S. aureus [7] (abraded mouse skin, drug alone in PEG ointment, 3 times a day on Days 1 and 2, skin sampled Day 3, vs untreated controls, FIG. 1), the “decrease in infectious CFUs” value stood at 3 logs. In addition, the “animals cleared of infection” value in the assay with S. aureus [7] (abraded mouse skin, topical ointment 3 times a day on Days 1 and 2, FIG. 1) was “Neither drug alone was able to completely clear the infection”. Also, in the assay with P. aeruginosa [8], the “activity against P. aeruginosa” value is “poor activity”.

Take neomycin: the “synergy with nisin” value in the assay on S. aureus [1] is on record as “did not synergize”. For the same molecule, in the assay with S. aureus [2], the “ability to synergize in vitro with nisin” value was “none of the antimicrobials tested (i.e., mupirocin, neomycin, and gentamicin) displayed the ability to synergize in vitro with nisin”.

For lysostaphin, in the assay on S. aureus [7], the “efficacy compared with independent administration of nisin” value is recorded as “None of these antibacterial agents administered independently, or administered in a composition comprising nisin, were significantly more efficacious than the independent administration of nisin” and the “additive or synergistic effect when combined with nisin” value is given as “no additive or synergistic effect was observed”.

gallidermin: in the assay with S. aureus [1], the “synergy with mupirocin in the skin infection model” value is given as “did synergize” and the “synergy with nisin” value is “did not synergize”.

Take `CC[C@H](C)[C@H](N)C1=N[C@H](C(=O)N[C@@H](CC(C)C)C(=O)N[C@H](CCC(=O)O)C(=O)N[C@H](C(=O)N[C@H]2CCCCNC(=O)[C@H](CC(N)=O)NC(=O)[C@@H](CC(=O)O)NC(=O)[C@H](Cc3cnc[nH]3)NC(=O)[C@@H](Cc3ccccc3)NC(=O)[C@H]([C@@H](C)CC)NC(=O)[C@@H](CCCN)NC2=O)[C@@H](C)CC)CS1` [bacitracin] ({Ileψ(thiazoline)Cys}-L[dE]IK[dOrn]I[dF]H[dD]N; lactam 4-C): in the assay with S. aureus [1], the “synergy with mupirocin in the skin infection model” value is “did not synergize with bacitracin, nor was there an additive benefit; also recorded: does not synergize with or provide additive benefit together with bacitracin”. Also, in the assay with S. aureus [7], the “efficacy compared with independent administration of nisin” value is listed as “None of these antibacterial agents administered independently, or administered in a composition comprising nisin, were significantly more efficacious than the independent administration of nisin” and the “additive or synergistic effect when combined with nisin” value is “no additive or synergistic effect was observed”.
